Measured values published in PubChem BioAssay (NCI).
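Cells were grown in 96-well plates and exposed to each compound for 48 hours at five concentrations; endpoints were interpolated linearly between bracketing concentrations, or set to the highest concentration if not reached. GI50 marks 50% less growth. TGI is the concentration that stops growth completely.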

Tests used:
Experiment in all cases: NCI tumour cell line growth inhibition, 48 h
SN12C renal = system: SN12C renal
HCT-116 colon = system: HCT-116 colon
OVCAR-8 ovarian = system: OVCAR-8 ovarian
PC-3 prostate = system: PC-3 prostate
HOP-62 NSCLC = system: HOP-62 NSCLC
COLO 205 colon = system: COLO 205 colon
SF-268 CNS = system: SF-268 CNS
MOLT-4 leukemia = system: MOLT-4 leukemia
HCC-2998 colon = system: HCC-2998 colon
ACHN renal = system: ACHN renal

| Structure (SMILES) | GI50 (SN12C renal) [µM] | TGI (SN12C renal) [µM] | GI50 (HCT-116 colon) [µM] | TGI (HCT-116 colon) [µM] | GI50 (OVCAR-8 ovarian) [µM] | TGI (OVCAR-8 ovarian) [µM] | GI50 (PC-3 prostate) [µM] | TGI (PC-3 prostate) [µM] | GI50 (HOP-62 NSCLC) [µM] | TGI (HOP-62 NSCLC) [µM] | GI50 (COLO 205 colon) [µM] | TGI (COLO 205 colon) [µM] | GI50 (SF-268 CNS) [µM] | TGI (SF-268 CNS) [µM] | GI50 (MOLT-4 leukemia) [µM] | TGI (MOLT-4 leukemia) [µM] | TGI (HCC-2998 colon) [µM] | TGI (ACHN renal) [µM] | GI50 (HCC-2998 colon) [µM] | GI50 (ACHN renal) [µM] |
| --- | --- | --- | --- | --- | --- | --- | --- | --- | --- | --- | --- | --- | --- | --- | --- | --- | --- | --- | --- | --- |
| Cc1ccc(NC2=C(Cl)C(=O)N(Cc3ccccc3)C2=O)cc1O | 25.6 | 93.8 | 37.7 | > 100 | 26.1 | > 100 | 32.5 | > 100 | 34.8 | > 100 | 49 | > 100 | 31.7 | > 100 | 24.3 | > 100 | – | – | – | – |
| Cc1coc2c1CC1(C)C(CCC(O)C1C)C2 (configuration not stated) | – | > 100 | – | > 100 | – | > 100 | – | > 100 | – | > 100 | – | > 100 | – | > 100 | – | > 100 | > 100 | > 100 | – | – |
| CC(C)=CC(=O)C1c2cccc(O)c2C(=O)c2c(O)cc(C)cc21 (configuration not stated) | – | 25.4 | – | 6.39 | – | 7.58 | – | – | – | 7.87 | – | 3.4 | – | 5.3 | – | 20.7 | 5.67 | 4.77 | – | – |
| O=C(O)c1ccccc1[Se][Se]c1ccccc1C(=O)O | – | > 100 | – | > 100 | – | > 100 | – | – | – | 73.5 | – | > 100 | – | > 100 | – | > 100 | > 100 | > 100 | – | – |
| CN(C)CC[N+]1=Nc2cccc3cccc(c23)N1 | – | > 100 | – | > 72.7 | – | > 100 | – | – | – | > 100 | – | > 71.2 | – | > 100 | – | > 73.2 | > 100 | > 100 | – | – |
| Cn1c2ccccc2c2c(Nc3ccccc3)c3ccccc3nc21 | 16.5 | 47.3 | 13.2 | 36.1 | 27.3 | > 100 | 11.7 | 48.1 | – | – | 59 | > 100 | 19.2 | 53 | 7.89 | > 100 | > 100 | 65.5 | 40.9 | 23 |
| COc1ccc2c3c1C(=O)CCCC3CO2 (configuration not stated) | – | > 100 | – | – | – | > 100 | – | – | – | > 100 | – | > 100 | – | > 100 | – | > 100 | > 100 | > 100 | – | – |
| CN/N=C(/Cc1occc(=O)c1O)C(=O)Nc1ccccc1C | – | > 100 | – | > 100 | – | > 100 | – | – | – | > 100 | – | > 100 | – | > 100 | – | > 100 | > 100 | > 100 | – | – |
| O=S1(=O)c2ccccc2NC(c2ccc3ccccc3c2)CC1c1ccccc1F (configuration not stated) | – | > 100 | – | – | – | > 100 | – | – | – | > 100 | – | > 100 | – | > 100 | – | > 100 | > 100 | > 100 | – | – |
| CC1=C(C(=O)Nc2ccc(Cl)c(Cl)c2)C(c2cccc(Oc3ccccc3)c2)NC(=S)N1 (configuration not stated) | 8.75 | 15.9 | 20.6 | > 50 | 7.8 | 16.8 | 9.71 | 29.1 | 14.2 | 24.2 | 9.38 | 21.1 | 6.1 | 12.9 | > 50 | > 50 | – | 15.1 | – | 8.07 |
| NNC(=O)Nc1cccnc1 | – | > 100 | – | > 100 | – | > 100 | – | > 100 | – | > 100 | – | > 100 | – | – | – | – | > 100 | > 100 | – | – |
| O=C1/C(=C/c2ccccc2)CN(C(=O)C(Cl)(Cl)Cl)C/C1=C\c1ccccc1 | – | 3.12 | – | 1.36 | – | 3.1 | – | – | – | – | – | 4.69 | – | 13.4 | – | 5.77 | – | 4.62 | – | – |
| CCCCCCCCCCCOc1ccc(C(=O)C(=O)c2ccc(OCCCCCCCCCCC)c(OCCCCCCCCCCC)c2)cc1OCCCCCCCCCCC | – | > 100 | – | > 100 | – | > 100 | – | – | – | > 100 | – | > 100 | – | > 100 | – | > 100 | > 100 | > 100 | – | – |
| O=CC[C@H]1C(=O)C[C@@H]2CCC[C@@H]21 | – | > 100 | – | > 100 | – | > 100 | – | – | – | > 100 | – | > 100 | – | > 100 | – | > 100 | > 100 | > 100 | – | – |
| C/C(CC(=O)CCC(=O)Nc1cccc(C(F)(F)F)c1)=N\NC(=O)NN | – | > 100 | – | > 100 | – | > 100 | – | – | – | > 100 | – | > 100 | – | > 100 | – | > 100 | > 100 | > 100 | – | – |
| O=C(/C=C/c1ccccc1)NC1C=Nc2ccc(Cl)cc2NC1=O (configuration not stated) | – | > 100 | – | 85.7 | – | > 100 | – | – | – | > 100 | – | 33.9 | – | > 100 | – | 27.3 | 65.5 | > 100 | – | – |
| C=C(CN1CCN(c2ccc(Cl)cc2F)CC1)c1ccc(C(=O)Nc2ccccc2N)cc1 | 1.87 | > 100 | 1.85 | > 94.2 | 3.4 | > 100 | 1.55 | > 100 | 3.42 | 27.8 | 16.7 | > 95.3 | 2.61 | > 100 | – | – | > 60.5 | > 100 | 3.84 | 4.02 |
| COC(=O)CC1CCN(C#N)CC1CC[N+](=O)[O-] (configuration not stated) | – | > 100 | – | > 100 | – | > 100 | – | – | – | > 100 | – | > 100 | – | > 100 | – | > 100 | > 100 | > 100 | – | – |
| N#CC1C(C#N)C2(c3ccccc3)C(c3ccccc3)=NN(c3ccccc3)CC12 (configuration not stated) | – | > 100 | – | > 100 | – | > 100 | – | – | – | – | – | – | – | – | – | > 100 | > 100 | > 100 | – | – |
| O=C(COc1ccc(Br)cc1Br)N1N=C(c2ccc([N+](=O)[O-])o2)CC1(O)c1ccccc1 (configuration not stated) | – | 25.7 | – | 33.2 | – | 36.7 | – | – | – | 27.5 | – | 7.05 | – | 36 | – | 8.98 | 23.1 | > 100 | – | – |
